Where a name gives a salt, the structure may show the parent alone.
Key:
[1] = target: baculovirus-expressed JAK2 kinase (Homo sapiens, UniProt O60674); assay: biochemical; conditions: 0.2 μM ATP; read-out: JAK2 Potency
Outline: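 Time-resolved fluorescence kinase assay using 15 ng/mL baculovirus-expressed JAK2 on Neutravidin-captured biotinylated 15-mer peptide substrate, reaction 20 min at room temperature. IC50 from percent inhibition versus log concentration, sigmoidal variable-slope fit.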

[2] = target: baculovirus-expressed ALK (Homo sapiens, UniProt Q9UM73); assay: ALK kinase inhibition, TRF/ELISA; type: biochemical; conditions: read-out: ALK Potency
Outline: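 Plates were coated with GST-PLC-γ substrate (10 μg/mL) and the reaction was started with 30 ng/mL ALK, running 15 min at 37° C. Phosphotyrosine was detected by time-resolved fluorescence with Eu-labeled PT66 antibody. IC50s came from variable-slope sigmoidal fits of percent inhibition versus log concentration.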

baculovirus-expressed ALK, sequence (Q9UM73 19-1620): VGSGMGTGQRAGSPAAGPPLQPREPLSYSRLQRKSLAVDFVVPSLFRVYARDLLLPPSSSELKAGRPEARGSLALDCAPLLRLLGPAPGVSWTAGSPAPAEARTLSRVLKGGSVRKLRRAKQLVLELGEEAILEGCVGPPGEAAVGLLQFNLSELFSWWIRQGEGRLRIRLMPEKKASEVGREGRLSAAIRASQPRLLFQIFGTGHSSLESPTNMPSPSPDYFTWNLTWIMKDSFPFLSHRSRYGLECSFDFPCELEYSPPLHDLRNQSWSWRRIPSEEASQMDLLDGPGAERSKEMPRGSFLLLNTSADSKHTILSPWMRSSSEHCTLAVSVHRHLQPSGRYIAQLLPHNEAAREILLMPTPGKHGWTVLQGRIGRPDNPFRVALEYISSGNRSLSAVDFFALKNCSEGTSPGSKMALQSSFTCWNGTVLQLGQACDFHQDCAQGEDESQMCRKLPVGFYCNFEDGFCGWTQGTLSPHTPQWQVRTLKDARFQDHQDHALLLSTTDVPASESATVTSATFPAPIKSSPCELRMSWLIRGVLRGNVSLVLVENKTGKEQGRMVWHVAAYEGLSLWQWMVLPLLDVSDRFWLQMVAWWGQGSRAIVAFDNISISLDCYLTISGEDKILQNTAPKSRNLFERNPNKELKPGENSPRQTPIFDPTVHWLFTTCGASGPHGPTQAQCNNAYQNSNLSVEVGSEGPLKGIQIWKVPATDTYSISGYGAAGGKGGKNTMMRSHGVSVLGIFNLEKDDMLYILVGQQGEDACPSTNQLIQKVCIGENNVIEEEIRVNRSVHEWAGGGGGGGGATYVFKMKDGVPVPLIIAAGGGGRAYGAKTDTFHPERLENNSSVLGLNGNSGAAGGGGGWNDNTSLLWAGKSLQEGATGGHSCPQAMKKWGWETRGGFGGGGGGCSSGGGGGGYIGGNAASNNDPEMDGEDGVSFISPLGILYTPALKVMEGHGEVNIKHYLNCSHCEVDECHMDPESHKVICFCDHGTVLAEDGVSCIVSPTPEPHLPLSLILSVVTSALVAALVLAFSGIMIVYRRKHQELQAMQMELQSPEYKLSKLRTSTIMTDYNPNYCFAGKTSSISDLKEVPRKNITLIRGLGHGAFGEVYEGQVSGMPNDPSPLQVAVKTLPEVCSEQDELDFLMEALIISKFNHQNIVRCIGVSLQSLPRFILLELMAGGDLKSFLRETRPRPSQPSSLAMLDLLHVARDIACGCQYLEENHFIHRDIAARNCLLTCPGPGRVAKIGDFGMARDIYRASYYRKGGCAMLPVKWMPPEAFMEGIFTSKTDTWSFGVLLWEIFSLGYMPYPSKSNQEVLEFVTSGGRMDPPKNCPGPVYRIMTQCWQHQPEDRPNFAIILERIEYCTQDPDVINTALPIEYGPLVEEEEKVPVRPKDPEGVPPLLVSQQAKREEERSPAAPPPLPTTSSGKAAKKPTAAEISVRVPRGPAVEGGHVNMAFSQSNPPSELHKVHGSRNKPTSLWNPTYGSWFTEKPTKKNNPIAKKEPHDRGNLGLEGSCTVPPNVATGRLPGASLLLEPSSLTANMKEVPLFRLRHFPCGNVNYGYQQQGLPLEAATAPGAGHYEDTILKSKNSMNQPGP
baculovirus-expressed JAK2 kinase, sequence (O60674 whole entry): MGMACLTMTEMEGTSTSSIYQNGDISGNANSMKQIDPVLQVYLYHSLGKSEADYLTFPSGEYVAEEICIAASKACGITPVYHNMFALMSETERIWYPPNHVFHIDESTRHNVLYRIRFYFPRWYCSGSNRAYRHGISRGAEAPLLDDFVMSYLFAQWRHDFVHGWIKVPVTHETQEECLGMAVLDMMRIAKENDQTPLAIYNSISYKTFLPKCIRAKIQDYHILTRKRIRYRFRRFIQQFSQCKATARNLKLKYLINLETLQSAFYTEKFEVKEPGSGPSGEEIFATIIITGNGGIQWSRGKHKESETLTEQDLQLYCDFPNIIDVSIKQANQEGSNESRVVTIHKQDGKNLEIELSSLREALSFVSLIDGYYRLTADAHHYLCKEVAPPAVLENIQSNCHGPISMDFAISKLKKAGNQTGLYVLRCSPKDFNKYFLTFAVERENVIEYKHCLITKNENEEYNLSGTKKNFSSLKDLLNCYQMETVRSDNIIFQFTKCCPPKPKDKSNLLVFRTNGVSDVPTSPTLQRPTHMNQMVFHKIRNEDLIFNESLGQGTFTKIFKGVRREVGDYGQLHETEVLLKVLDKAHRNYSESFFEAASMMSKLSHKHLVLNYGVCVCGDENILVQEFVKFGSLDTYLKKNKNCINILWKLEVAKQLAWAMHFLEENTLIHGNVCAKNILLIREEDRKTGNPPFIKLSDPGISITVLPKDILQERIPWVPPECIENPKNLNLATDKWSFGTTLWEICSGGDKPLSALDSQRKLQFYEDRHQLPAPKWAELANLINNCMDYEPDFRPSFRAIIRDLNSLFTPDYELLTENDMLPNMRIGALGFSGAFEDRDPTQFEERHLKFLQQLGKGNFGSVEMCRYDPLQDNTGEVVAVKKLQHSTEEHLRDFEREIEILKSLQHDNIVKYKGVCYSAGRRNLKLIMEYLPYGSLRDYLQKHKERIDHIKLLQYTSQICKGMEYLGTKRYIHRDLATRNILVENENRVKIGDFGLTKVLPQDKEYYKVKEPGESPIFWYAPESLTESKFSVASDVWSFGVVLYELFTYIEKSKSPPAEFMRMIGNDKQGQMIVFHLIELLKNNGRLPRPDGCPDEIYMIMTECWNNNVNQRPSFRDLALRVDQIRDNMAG

Row | IC50 [1] | IC50 [2] | Structure (SMILES)
1 | < 100 nM | 100 to 1000 nM | CN1CCN(C(=O)c2cccc(-c3nc4c(N[C@H]5[C@@H](C(N)=O)[C@@H]6C=C[C@H]5C6)c(Cl)cnc4[nH]3)c2)CC1 [Compound CCXXI, (1S,2S,3R,4R)-3-(6-chloro-2-(3-(4-methylpiperazine-1-carbonyl)phenyl)-3H-imidazo[4,5-b]pyridin-7-ylamino)bicyclo[2.2.1]hept-5-ene-2-carboxamide]
2 | < 100 nM | < 100 nM | CCNC(=O)N1CCC(n2cc(-c3nc4c(N[C@H]5[C@@H](C(N)=O)[C@@H]6C=C[C@H]5C6)c(Cl)cnc4[nH]3)cn2)CC1 [Compound LXII, 4-{4-[7-((1R,2R,3S,4S)-3-Carbamoyl-bicyclo[2.2.1]hept-5-ene-2-ylamino)-6-chloro-3H-imidazo[4,5-b]pyridine-2-yl]-pyrazol-1-yl)-piperidine-1-carboxylic acid ethylamide]
3 | > 10000 nM | < 100 nM | COc1cc(N2CCOCC2)ccc1-c1nc2c(N[C@@H]3CCCC[C@H]3NS(C)(=O)=O)c(Cl)cnc2[nH]1 [Compound LXXII, N-{(1R,2R)-2-[6-Chloro-2-(2-methoxy-4-morpholin-4-yl-phenyl)-3H-imidazo[4,5-b]pyridine-7-ylamino]-cyclohexyl}-methanesulfonamide]
4 | < 100 nM | < 100 nM | NC(=O)[C@@H]1[C@H](Nc2c(Br)cnc3[nH]c(-c4sc(N5CCCC5)nc4Cl)nc23)[C@H]2C=C[C@@H]1C2 [Compound CLXVII, (1S,2S,3R,4R)-3-[6-Bromo-2-(4-chloro-2-pyrrolidin-1-yl-thiazol-5-yl)-3H-imidazo[4,5-b]pyridin-7-ylamino]-bicyclo[2.2.1]hept-5-ene-2-carboxylic acid amide]
5 | > 10000 nM | > 10000 nM | COc1cc(N2CCOCC2)ccc1-c1nc2c(N3C[C@@H]4C[C@H]3CN4C[C@H](C)O)c(Cl)cnc2[nH]1 [Compound XXXIX, (S)-1-[(1S,4S)-5-[6-Chloro-2-(methoxy-4-morpholin-4-yl-phenyl)-3H-imidazo[4,5-b]pyridine-7-yl]-2,5-diaza-bicyclo[2.2.1]hept-2-yl]-propan-2-ol]
6 | < 100 nM | < 100 nM | COc1cc(C(=O)N2CCOCC2)ccc1-c1nc2c(N[C@H]3[C@@H](C(N)=O)[C@@H]4C=C[C@H]3C4)c(Cl)cnc2[nH]1 [Compound LXIII, (1S,2S,3R,4R)-3-{6-Chloro-2-[2-methoxy-4-(morpholine-4-carbonyl)-phenyl]-3H-imidazo[4,5-b]pyridine-7-ylamino}-bicyclo[2.2.1]hept-5-ene-2-carboxylic acid amide]
7 | < 100 nM | < 100 nM | CN1CCN(c2nc(Cl)c(-c3nc4c(N[C@H]5[C@@H](C(=O)N(C)C)[C@@H]6C=C[C@H]5C6)c(Cl)cnc4[nH]3)s2)CC1 [Compound CCLXIV, (1S,2S,3R,4R)-3-((6-chloro-2-(4-chloro-2-(4-methylpiperazin-1-yl)thiazol-5-yl)-3H-imidazo[4,5-b]pyridin-7-yl)amino)-N,N-dimethylbicyclo[2.2.1]hept-5-ene-2-carboxamide]
8 | < 100 nM | 100 to 1000 nM | NC(=O)[C@@H]1[C@H](Nc2c(Br)cnc3[nH]c(-c4ccc(Cl)cc4)nc23)[C@H]2C=C[C@@H]1C2 [Compound CXLIII, (1S,2S,3R,4R)-3-[6-Bromo-2-(4-chloro-phenyl)-3H-imidazo[4,5-b]pyridin-7-ylamino]-bicyclo[2.2.1]hept-5-ene-2-carboxylic acid amide]
9 | < 100 nM | 100 to 1000 nM | N#Cc1ccc(-c2nc3c(N[C@H]4[C@@H](C(N)=O)[C@@H]5C=C[C@H]4C5)c(Br)cnc3[nH]2)cc1 [Compound CXLVII, (1S,2S,3R,4R)-3-[6-Bromo-2-(4-cyano-phenyl)-3H-imidazo[4,5-b]pyridin-7-ylamino]-bicyclo[2.2.1]hept-5-ene-2-carboxylic acid amide]
10 | < 100 nM | < 100 nM | COc1cc(N(C)C)ccc1-c1nc2c(N[C@H]3[C@@H](C(N)=O)[C@@H]4C=C[C@H]3C4)c(Cl)cnc2[nH]1 [Compound XVII, (1S,2S,3R,4R)-3-[6-Chloro-2-(4-dimethylamino-2-methoxy-phenyl)-3H-imidazo[4,5-b]pyridine-7-ylamino]-bicyclo[2.2.1]hept-5-ene-2-carboxylic acid amide]
11 | > 10000 nM | > 10000 nM | CC(C)(C)OC(=O)N1CCCC(c2nc3c(N[C@H]4[C@@H](C(N)=O)[C@@H]5C=C[C@H]4C5)c(Cl)cnc3[nH]2)C1 (stereo partly drawn) [Compound XI, 3-[7-((1R,2R,3S,4S)-3-Carbamoyl-bicyclo[2.2.1]hept-5-en-2-ylamino)-6-chloro-3H-imidazo[4,5-b]pyridine-2-yl]-piperidine-1-carboxylic acid tert-butyl ester]
12 | 100 to 1000 nM | 100 to 1000 nM | COc1ccc(-c2nc3c(N[C@H]4[C@@H](C(N)=O)[C@@H]5C=C[C@H]4C5)c(Cl)cnc3[nH]2)c(C2CCN(C[C@H](O)CO)CC2)c1 [Compound XXXIII]
13 | 100 to 1000 nM | < 100 nM | COc1cc(N2CCN(C)CC2)ccc1-c1nc2c(N[C@H]3[C@@H](C(=O)N(C)C)[C@@H]4C=C[C@H]3C4)c(Cl)cnc2[nH]1 [Compound CXCVII, (1S,2S,3R,4R)-3-(6-chloro-2-(2-methoxy-4-(4-methylpiperazin-1-yl)phenyl)-3H-imidazo[4,5-b]pyridin-7-ylamino)-N,N-dimethylbicyclo[2.2.1]hept-5-ene-2-carboxamide]
14 | 1000 to 10000 nM | 100 to 1000 nM | CC(C)NC(=O)[C@@H]1[C@H](Nc2c(Cl)cnc3[nH]c(-c4sc(N5CC[C@@H](O)C5)nc4Cl)nc23)[C@H]2C=C[C@@H]1C2 [Compound CLXIX, (1S,2S,3R,4R)-3-{6-Chloro-2-[4-chloro-2-((R)-3-hydroxy-pyrrolidin-1-yl)-thiazol-5-yl]-1H-imidazo[4,5-b]pyridin-7-ylamino}-bicyclo[2.2.1]hept-5-ene-2-carboxylic acid isopropylamide]
15 | < 100 nM | > 10000 nM | CC12CCC(Nc3c(Cl)cnc4[nH]c(-c5ccc(N6CCOCC6)cc5)nc34)(CC1O)C2(C)C (stereo not shown) [Compound CCI, 4-(6-chloro-2-(4-morpholinophenyl)-3H-imidazo[4,5-b]pyridin-7-ylamino)-1,7,7-trimethylbicyclo[2.2.1]heptan-2-ol]
16 | < 100 nM | < 100 nM | NC(=O)[C@@H]1[C@H](Nc2c(Cl)cnc3[nH]c(-c4ccc(N5CCNCC5)cc4)nc23)[C@H]2C=C[C@@H]1C2 [Compound XV, (1S,2S,3R,4R)-3-[6-Chloro-2-(4-piperazin-1-yl-phenyl)-3H-imidazo[4,5-b]pyridin-7-ylamino]-bicyclo[2.2.1]hept-5-ene-2-carboxylic acid amide trifluoroacetic acid salt]
17 | < 100 nM | 100 to 1000 nM | NC(=O)[C@@H]1[C@H](Nc2c(Br)cnc3[nH]c(-c4ccccc4Cl)nc23)[C@H]2C=C[C@@H]1C2 [Compound CXLIX, (1S,2S,3R,4R)-3-[6-Bromo-2-(2-chloro-phenyl)-3H-imidazo[4,5-b]pyridin-7-ylamino]-bicyclo[2.2.1]hept-5-ene-2-carboxylic acid amide]
18 | < 100 nM | < 100 nM | CN(C)CCNC(=O)c1cccc(-c2nc3c(N[C@H]4[C@@H](C(N)=O)[C@@H]5C=C[C@H]4C5)c(Cl)cnc3[nH]2)c1 [Compound CCXXXI, (1S,2S,3R,4R)-3-(6-chloro-2-(3-(2-(dimethylamino)ethylcarbamoyl)phenyl)-3H-imidazo[4,5-b]pyridine-7-ylamino)pyridin[2.2.1]hept-5-ene-2-carboxamide]
19 | < 100 nM | < 100 nM | Cc1nc(C2CCN(CC(N)=O)CC2)sc1-c1nc2c(N[C@H]3[C@@H](C(N)=O)[C@@H]4C=C[C@H]3C4)c(Cl)cnc2[nH]1 [Compound LXV, (1S,2S,3R,4R)-3-{2-[2-(1-Carbamoylmethyl-piperidin-4-yl)-4-methyljj-thiazol-5-yl]-6-chloro-3H-imidazo[4,5-b]pyridine-7-ylamino}-bicyclo[2.2.1]hept-5-ene-2-carboxylic acid amide]
20 | < 100 nM | < 100 nM | CN1CCN(C(=O)c2ccc(-c3nc4c(N[C@H]5[C@@H](C(N)=O)[C@@H]6C=C[C@H]5C6)c(Cl)cnc4[nH]3)cc2)CC1 [Compound CCXXII, (1S,2S,3R,4R)-3-(6-chloro-2-(4-(4-methylpiperazine-1-carbonyl)phenyl)-3H-imidazo[4,5-b]pyridin-7-ylamino)bicyclo[2.2.1]hept-5-ene-2-carboxamide]
21 | < 100 nM | < 100 nM | CN1CCN(c2nc(Cl)c(-c3nc4c(N[C@H]5[C@@H](C(N)=O)[C@@H]6C=C[C@H]5C6)c(Cl)cnc4[nH]3)s2)CC1 [Compound CCXII, (1S,2S,3R,4R)-3-(6-chloro-2-(4-chloro-2-(4-methylpiperazin-1-yl)thiazol-5-yl)-3H-imidazo[4,5-b]pyridin-7-ylamino)bicyclo[2.2.1]hept-5-ene-2-carboxamide]
22 | < 100 nM | < 100 nM | CN1CCN(CCOc2ccc(-c3nc4c(N[C@H]5[C@@H](C(N)=O)[C@@H]6C=C[C@H]5C6)c(Cl)cnc4[nH]3)cc2)CC1 [Compound CCL, (1S,2S,3R,4R)-3-(6-chloro-2-(4-(2-(4-methylpiperazin-1-yl)ethoxy)phenyl)-3H-imidazo[4,5-b]pyridin-7-ylamino)bicyclo[2.2.1]hept-5-ene-2-carboxamide]
23 | < 100 nM | < 100 nM | CNC(=O)[C@@H]1[C@H](Nc2c(Cl)cnc3[nH]c(-c4ccc(N5CCOCC5)cc4)nc23)[C@H]2C=C[C@@H]1C2 [Compound CLXXVIII, (1S,2S,3R,4R)-3-(6-chloro-2-(4-morpholinophenyl)-3H-imidazo[4,5-b]pyridin-7-ylamino)-N-methylbicyclo[2.2.1]hept-5-ene-2-carboxamide]
